The subject of this experiment is THP-1. Description: Percentage growth inhibition of Toxoplasma gondii at concentration of 2 ug/mL using an human myelomonocytic cell line THP-1. The experiment is classed as functional. The following applies: read-out: GI.

Each structure is given as a SMILES string.

Take `Cc1cc2c(o1)C(=O)C=C(Br)C2=O`: the inhibition of growth at 2 µg/mL turned out to be 83%.

As for `Cc1cc2c(o1)C(=O)c1cnc(O)cc1C2=O`, the inhibition of growth at 2 µg/mL came to 62%.

On to `O=C1C=C(Br)C(=O)c2ccccc21` [2-Bromo-1,4-naphthoquinone], for which the inhibition of growth at 2 µg/mL came to 66%.

As for `CCOc1cnc2c(c1C)C(=O)c1oc(C)c(C)c1C2=O`, the inhibition of growth at 2 µg/mL was found to be 89.5%.

For the compound `O=C1C(O)=C([C@H]2CC[C@H](c3ccc(Cl)cc3)CC2)C(=O)c2ccccc21` [ATOVAQUONE], the inhibition of growth at 2 µg/mL was determined as 95%.

As to `Cc1c2c(cc(=O)n1C)C(=O)c1ccccc1C2=O`, the inhibition of growth at 2 µg/mL came to 56%.

For the compound `Cc1nc(O)cc2c1C(=O)c1cccc(O)c1C2=O`, the inhibition of growth at 2 µg/mL is 50%.

`Cn1cc2c(cc1=O)C(=O)c1ccccc1C2=O`: the inhibition of growth at 2 µg/mL was 52%.

In the case of `O=C1c2ccccc2C(=O)c2cc(O)ncc21`, the inhibition of growth at 2 µg/mL was 80%.

Turning to `Nc1ccc(S(=O)(=O)Nc2ncccn2)cc1` [SULFADIAZINE], the inhibition of growth at 2 µg/mL was 90%.

Consider `Cc1cc2c(o1)C(=O)c1cc(O)ncc1C2=O`, for which the inhibition of growth at 2 µg/mL is 92%.

For the compound `O=C1c2cc(O)ncc2C(=O)c2c(O)cccc21`, the inhibition of growth at 2 µg/mL worked out at 54%.

`CCC[C@@H]1C[C@@H](C(=O)N[C@@H]([C@H]2O[C@H](SC)[C@H](O)[C@@H](O)[C@H]2O)[C@H](C)Cl)N(C)C1` [CLINDAMYCIN]: the inhibition of growth at 2 µg/mL was 86%.

Turning to `Cc1cnc2c(c1)C(=O)c1c(oc(C)c1C)C2=O`, the inhibition of growth at 2 µg/mL was determined as 96.5%.

Consider `CCc1nc(N)nc(N)c1-c1ccc(Cl)cc1` [PYRIMETHAMINE], for which the inhibition of growth at 2 µg/mL came to 94%.

The values are drawn from ChEMBL document CHEMBL1133348, “Quinonic derivatives active against a virulent strain of Toxoplasma gondii. Synthesis of 2-methylfuro[2,3-g]- and [3,2-g]isoquinolinetriones” (2000).
